Like-named read-outs stand apart in the source and are kept apart here. Values belong to the compound of their own block, whether it stands above or below them.
Key:
[1] = target: T1, GBA (Homo sapiens (Human), UniProt P04062, R534H); test: Continuous substrate release assay for inhibition constants; format: biochemical; conditions: for Ki: equilibrium constant for initial binding; for Ki / ki: reported with s.e.m.; for ki: rate constant; for ki/Ki: relative rate constant
Source text: Previously discontinuous methods have been used to determine the inhibition constants of glycosidase inhibitors. […] Therefore the inhibition constants have been determined in a continuous substrate assay which was first described in 1982 (2) and has recently been reappraised in 2010 (3). In these experiments, inhibition of the enzyme and hydrolysis of the substrate proceed concurrently making the situation slightly more complex than the discontinuous (FIG. 39 Scheme 2). The time-dependent interaction of inhibitor (I) with free β-glucosidase (E) was considered to occur in separate stages (A). A rapid reversible interaction is followed by a slower, irreversible reaction that transforms the reversible enzyme-inhibitor complex (EI) into an irreversible enzyme-inhibitor complex (EI*) (FIG. 39 Scheme 2). Progress curves were obtained (FIG. 28a) and apparent rate constant k′ was plotted versus the concentration (FIG. 28b) to obtain estimates of the Ki (equilibrium constant) and ki (rate constant)
To 100 μL McIlvaine buffer (pH 5.2, 0.2% sodium taurocholate, 0.1% Triton X-100) containing 4-methylumbelliferyl β-D-glucoside (7.5 mM) in Greiner flat bottom black 96-well plate was added 5 μL inhibitor (25× stock in DMSO). The resulting mixture was preincubated at 37° C. for 15 min in a TECAN GENios microplate reader. GBA (2 ng) in McIlvaine buffer (20 μL pH 5.2, 0.2% sodium taurocholate, 0.1% Triton X-100) was preheated to 37° C. for 15 min before being added to the substrate mix. The resulting solution was mixed by horizontal shaking for 15 sec, after which release 4-methylumbelliferyl measured with a TECAN GENios platereader (λex 340 nm and λem 465 nm) for the indicated time. Bleaching of the fluorophore, which was observed during the assay, was corrected by subtracting blanks (100 μL substrate buffer, 5 μL DMSO, 20 μL McIlvaine buffer). Apparent rate constants k′ were obtained by fitting the resulting progress curves (FIG. 28A) to the one-phase association equitation y (y max y0)(1−exp^−kt)yo+in GraphPad Prism version 5.00 for Windows, GraphPad Software, San Diego Calif. USA, www.graphpad.com. Measurements were performed in nine fold and plotting of the obtained k′ values versus [^I0] yielded rectangular hyperbolar functions (FIG. 28B).
[formula] estimates of Ki app and ki were obtained. The Ki value in the absence of substrate was obtained by correcting the Ki app with […]

[2] = target: T1, GBA; test: GBA enzyme activity assay with 4-methylumbelliferyl β-D-glucopyranoside, inhibitor preincubated 30 min (apparent IC50); format: biochemical
[3] = target: GBA1 (Homo sapiens (Human), UniProt P04062); test: Kinetic constants of GBA1 inhibition (Table 2); format: biochemical; conditions: Table 2 kinetic constants
[4] = target: T1, GBA; test: Reversibility of isofagomine competition for active site labeling; format: biochemical; conditions: pH 5.2, wash before labeling with MDW933 (10 nM for 15 min)
[5] = target: N370S GBA (Homo sapiens (Human), UniProt P04062, N370S); test: Chaperone experiment using isofagomine in N370S GBA fibroblasts; format: cell-based; conditions: 7 d, 0, 10, 30 and 300 nM
[6] = target: T1, GBA; test: Competition assay for labeling of recombinant GBA with MDW933; format: biochemical; conditions: 2 mM, 30 min
[7] = tested on: lactase; test: Lactose competition of MDW933 labeling in intestinal homogenates; format: biochemical, mouse; conditions: lactose 250 mM
Source text: FIG. 32 Indenfication of the 160 kDa protein. […] (b) Quantification of the observed fluorescent signal. Data represent mean values±s.d.

[8] = target: T2, GBA (Homo sapiens (Human), UniProt P04062); test: Fluorescence microscopy of probe-labeled fibroblasts; format: cell-based; conditions: 5 nM, 2 h
Method: We studied in situ labeling of GBA in cells using fluorescence-activated cell sorting (FACS) analysis. We first preincubated cells in the absence or presence of CBE and subsequently incubated the cells with a subsaturating or an excess amount of the green fluorescent probe 5. […] These positive results prompted us to analyze labeling of the cells with fluorescence microscopy (FIG. 25c-f). […] We also detected GBA protein by indirect immunofluorescence using the specific anti-GBA monoclonal antibody 8E4 (ref. 29). Using multispectral image analysis, we could specifically distinguish the respective fluorescent emission spectra (FIG. 25d-e) from autofluorescent background (FIG. 25c). […] As probes with a hydrophobic BODIPY moiety might nonspecifically be retained in membranes, in particular the plasma membrane, we studied this possibility more closely. […] These control probes did inhibit GBA in vitro with IC^50 values of 41 and 95 μM, respectively. However, inhibition is presumably reversible.
Fibroblasts were cultured on glass slides. […] Next, cells were washed, fixed with 3% (v/v) paraformaldehyde in PBS for 15 min, washed and incubated first with 0.05% (w/v) saponine for 15 min, next with 0.1 mM NH4Cl in PBS for 10 min and then with 3% (w/v) bovine serum albumin in PBS for 1 h. Next, the slides were incubated with anti-GBA monoclonal antibody 8E4 (1:500). […]

[9] = tested on: fibroblasts; test: Toxicity monitoring by live-cell imaging of fibroblasts; format: cell-based, human; conditions: after 100 h of exposure
Method: (§1) We next studied the labeling of GBA by MDW941 in intact fibroblasts using time-lapse microscopy. […] As a control, matched mice received the buffer solution intravenously. […] In addition to GBA, MDW933 clearly labeled other proteins that occur in the intestine in the mouse.
With the 37° C., 10% CO2 incubator enclosing the microscope, […] microscopy with an N2.1 filter block and phase-contrast brightfield microscopy (Leica IR-BE with Z-motor drive and a Plan APO 63×/1.40 oil immersion objective (Leica Microsystems, Rijswijk, The Netherlands), equipped with a KX85 camera, Apogee Instruments, Auburn, Calif., USA). […] An auto-focus routine was applied during acquisition. Images were analyzed using TimeLapseAVI 5.1.4 software (©Ron Hoebe, CMO, AMC, University of Amsterdam, The Netherlands; R.A.Hoebe@amc.uva.nl).

[10] = target: T2, GBA; test: Time-lapse microscopy of GBA labeling in intact fibroblasts; format: cell-based; conditions: 5 nM
Method: as §1
With the 37° C., 10% CO2 incubator enclosing the microscope, cells were imaged every 5 min for 2 hours simultaneously using fluorescence microscopy with an N2.1 filter block and phase-contrast brightfield microscopy (Leica IR-BE with Z-motor drive and a Plan APO 63×/1.40 oil immersion objective (Leica Microsystems, Rijswijk, The Netherlands), equipped with a KX85 camera, Apogee Instruments, Auburn, Calif., USA). […] An auto-focus routine was applied during acquisition. Images were analyzed using TimeLapseAVI 5.1.4 software (©Ron Hoebe, CMO, AMC, University of Amsterdam, The Netherlands; R.A.Hoebe@amc.uva.nl).

[11] = rec. GBA1, 30 min, 37 C., pH 5.2 + Tch, Tr, read-out: Apparent IC50 (nM) rec. GBA1: 30 min, 37 C., pH 5.2 + Tch, Tr
[12] = recombinant GBA, in vitro, read-out: apparent half-maximal inhibitory concentration (IC50)

T1 sequence (P04062 40-536 R534H): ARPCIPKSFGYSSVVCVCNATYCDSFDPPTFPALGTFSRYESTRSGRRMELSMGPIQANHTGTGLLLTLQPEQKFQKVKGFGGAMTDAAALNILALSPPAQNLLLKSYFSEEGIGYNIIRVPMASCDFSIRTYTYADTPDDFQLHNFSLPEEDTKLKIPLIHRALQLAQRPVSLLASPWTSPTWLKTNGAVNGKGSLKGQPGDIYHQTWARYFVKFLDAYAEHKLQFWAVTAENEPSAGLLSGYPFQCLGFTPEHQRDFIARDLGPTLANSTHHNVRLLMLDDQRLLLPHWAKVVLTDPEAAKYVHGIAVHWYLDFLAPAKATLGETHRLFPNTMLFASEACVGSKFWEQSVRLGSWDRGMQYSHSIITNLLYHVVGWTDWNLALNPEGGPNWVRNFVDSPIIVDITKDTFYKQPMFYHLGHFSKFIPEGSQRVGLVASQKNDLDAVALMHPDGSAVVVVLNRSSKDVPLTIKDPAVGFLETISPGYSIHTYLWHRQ
GBA1, sequence (P04062 40-536): as the sequence (P04062 40-536 R534H) above, with H495R counted along it
T2 sequence (P04062 40-536): as the sequence (P04062 40-536 R534H) above, with H495R counted along it
N370S GBA, sequence (P04062 40-536 N409S): as the sequence (P04062 40-536 R534H) above, with N370S, H495R counted along it

Compound: Cc1cc(=O)oc2cc(O[C@@H]3O[C@H](CO)[C@@H](O)[C@H](O)[C@H]3O)ccc12 [4-methylumbelliferyl β-D-glucoside, reference compound]
- Km [1]: 1200 µM

Compound: [N-]=[N+]=NC[C@@H]1[C@@H](O)[C@H](O)[C@@H](O)[C@@H]2O[C@H]12 [KY170, (2S,3R,4S,5S)-8-azido-8-deoxy-cyclophellitol]
- Ki [1]: 44 ± 7 nM
- ki [1]: 0.035 ± 0.003 min⁻¹
- ki/Ki [1]: 13200 M⁻¹ s⁻¹
- IC50 [2, 11]: 150 ± 30 nM
- IC50 [2, 12]: 120 ± 4 nM
- Ki [3]: 83 nM

Compound: OC[C@H]1CNC[C@@H](O)[C@@H]1O [isofagomine]
- reversibility of competition for the active site [4]: fully reversible
- GBA enzyme activity in cell homogenates [5]: modest isofagomine dose-dependent increase
- fluorescent MDW941-labeled GBA quantified on gel [5]: modest dose-dependent increase

Compound: O[C@H]1[C@H](O)[C@@H](O)[C@@H]2O[C@@H]2[C@@H]1O [CBE, Conduritol B-epoxide, reference compound]
- Ki [1]: 53000 ± 10800 nM
- ki [1]: 0.217 ± 0.026 min⁻¹
- ki/Ki [1]: 67 M⁻¹ s⁻¹
- IC50 [2, 11]: 12000 nM
- effect of preincubation on labeling with MDW933 [6]: blocked labeling completely
- Ki [3]: 7730 nM
- ki [3]: 0.0244 min⁻¹

Compound: OC[C@@H]1[C@@H](O)[C@H](O)[C@@H](O)[C@@H]2O[C@H]12 [Cyclophellitol 3, cyclophellitol, reference compound]
- Ki [1]: 152 ± 26 nM
- ki [1]: 0.078 ± 0.010 min⁻¹
- ki/Ki [1]: 8570 M⁻¹ s⁻¹
- IC50 [2, 12]: 150 ± 9 nM

Compound: OC[C@H]1O[C@@H](O[C@H]2[C@H](O)[C@@H](O)C(O)O[C@@H]2CO)[C@H](O)[C@@H](O)[C@H]1O (stereo partly shown) [lactose]
- reduction of labeling of the high-molecular weight protein in the intestinal fraction [7]: < 90%

More lines, main results first:

- IC50 [2, 12]: 41000 nM
Compound: CC1=CC(C)=[N+]2C1=C(CCCCc1cn(C[C@H]3C=C[C@H](O)[C@@H](O)[C@@H]3O)nn1)c1c(C)cc(C)n1[B-]2(F)F [MDW1064]

- IC50 [2, 12]: 95000 nM
- labeling of fibroblasts [8]: hardly any detectable labeling
Compound: COc1ccc(C2=[N+]3C(=C(CCCCc4cn(C[C@H]5C=C[C@H](O)[C@@H](O)[C@@H]5O)nn4)c4ccc(-c5ccc(OC)cc5)n4[B-]3(F)F)C=C2)cc1 [MDW1065]

- Ki [1]: 8 ± 3 nM
- ki [1]: 0.208 ± 0.063 min⁻¹
- ki/Ki [1]: 418300 M⁻¹ s⁻¹
- time to maximum labeling [10]: ≤ 15 min
- IC50 ([2]; FIG. 16, ABPs designed for GBA1, read-out: IC50): 2 nM
- IC50 ([2]; recombinant GBA, read-out: apparent half-maximal inhibitory concentration (IC50)): 1.94 ± 0.08 nM
- Ki [3]: 1.56 nM
- ki [3]: 0.0236 min⁻¹
Compound: COc1ccc(C2=[N+]3C(=C(CCCCc4cn(C[C@@H]5[C@@H](O)[C@H](O)[C@@H](O)[C@@H]6O[C@H]56)nn4)c4ccc(-c5ccc(OC)cc5)n4[B-]3(F)F)C=C2)cc1 [MDW941]
- signs of apoptosis or toxicity [9]: did not show any signs of apoptosis or toxicity

Reference: US9056847B2, “Activity based probes (ABPs) interacting with glycosidases” (ACADEMISCH MEDISCH CENTRUM BIJ UNIVERSITEIT VAN AMSTERDAM, priority 2010, dated 2015)
